The results in this text go back to paper PMC12670317, “Targeted NAT10 Degradation by PROTAC NP1192 Suppresses Hypoxia-Adaptive Glycolysis and Reinvigorates CD8^+ Effector T‑Cell Function for Synergistic Cancer Immunotherapy” (ACS Central Science, 2025).

One data set deals with T1, NAT10 (Homo sapiens, UniProt Q9H0A0).
T1 construct: depletion of total NAT10 protein in SiHa (human) and U14 (murine) CCa cell lines; endogenous in cells; host or cells: SiHa (human cervical cancer cell line)
T1 sequence (Q9H0A0 1-1025): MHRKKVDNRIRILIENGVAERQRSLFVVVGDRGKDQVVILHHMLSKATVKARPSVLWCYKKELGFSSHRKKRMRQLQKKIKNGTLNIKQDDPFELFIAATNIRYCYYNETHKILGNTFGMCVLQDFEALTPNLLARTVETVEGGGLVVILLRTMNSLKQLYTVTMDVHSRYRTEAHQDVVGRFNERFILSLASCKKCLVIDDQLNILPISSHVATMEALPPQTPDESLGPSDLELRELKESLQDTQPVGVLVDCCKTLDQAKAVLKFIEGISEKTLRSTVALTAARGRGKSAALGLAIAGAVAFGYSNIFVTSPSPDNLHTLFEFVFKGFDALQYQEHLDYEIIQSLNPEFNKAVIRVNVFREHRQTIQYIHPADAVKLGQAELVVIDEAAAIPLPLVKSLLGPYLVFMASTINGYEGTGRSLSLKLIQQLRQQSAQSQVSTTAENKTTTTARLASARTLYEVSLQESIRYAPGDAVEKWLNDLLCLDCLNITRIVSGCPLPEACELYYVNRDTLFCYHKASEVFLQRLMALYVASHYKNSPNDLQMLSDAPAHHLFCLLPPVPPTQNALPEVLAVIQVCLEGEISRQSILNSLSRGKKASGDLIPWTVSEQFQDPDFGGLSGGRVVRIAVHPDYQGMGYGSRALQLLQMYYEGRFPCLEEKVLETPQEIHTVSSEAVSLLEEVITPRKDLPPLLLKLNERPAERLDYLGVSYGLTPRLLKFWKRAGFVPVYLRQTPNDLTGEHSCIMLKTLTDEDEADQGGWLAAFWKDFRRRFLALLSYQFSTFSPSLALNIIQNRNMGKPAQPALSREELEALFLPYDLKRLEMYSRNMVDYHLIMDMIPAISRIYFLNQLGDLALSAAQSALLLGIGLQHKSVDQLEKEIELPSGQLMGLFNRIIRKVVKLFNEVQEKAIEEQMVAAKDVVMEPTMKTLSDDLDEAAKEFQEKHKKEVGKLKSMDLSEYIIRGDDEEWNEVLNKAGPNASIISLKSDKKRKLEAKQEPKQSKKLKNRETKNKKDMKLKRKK
Kind of data set: NAT10 degradation in SiHa cells, Western blot. Format: cell-based. As to the method: The human CCa cell line SiHa and the normal epithelial foreskin fibroblast line HFF-1 were purchased from the Cell Bank of the Chinese Academy of Sciences. Additionally, murine cervical carcinoma cell line U14 (RRID:CVCL_9U56) was purchased from Boster Company. HFF-1 and U14 cells were cultured in Dulbecco’s modified Eagle’s medium (DMEM) (Gibco, USA) supplemented with 10% heat-inactivated fetal bovine serum (FBS; Gibco, USA), while SiHa cells were incubated in RPMI 1640 medium (Gibco, USA) in a humid atmosphere with 5% CO2 at 37 °C. For hypoxia exposure, the cells were incubated in a sealed culture tank containing 5% CO2 and 0.1% O2 (MGC, Japan) for 36 h.
RIPA lysis buffer (Beyotime, China) mixed with 1% protease inhibitor (Sigma, US) was added to the cells, and a sample of total protein was obtained and then loaded onto an 8% or 12% polyacrylamide gel. The gel was placed in a buffer solution, and an electric current was applied. The separated proteins were subsequently transferred from the gel onto a PVDF membrane. Next, the membrane was blocked with 5% milk for 1 h to prevent nonspecific antibody binding. The membranes were subsequently incubated with anti-NAT10 (1:1000, Abcam, USA), anti-PD-L1 (1:1000, Proteintech, China), anti-HIF-1α (1:1000, Abmart, China), and anti-β-tubulin (1:1000, Proteintech, China) primary antibodies for 12 h. Afterward, the membrane was sequentially washed with 1× TBST and incubated for 1 h with an antimouse secondary antibody (1:6000, Elabscience, China) or antirabbit secondary antibody (1:6000, Elabscience, China). The target proteins were detected via chemiluminescence with a ChemiDoc MP Imaging System (Bio-Rad, US).
A general note: Immunoblotting shows a protein as a band on a membrane.

The test system of data set [1] is high-grade serous ovarian carcinoma (OV) patient-derived organoids. In words: ATP-based viability assay in patient-derived organoids, OV. Format: cell-based. The following applies: Homo sapiens, OV PDOs, read-out: IC50, organoid viability. As to the method: Organoid culture was performed according to previously established protocols. Briefly, we procured patient-derived tissue samples provided and technically manipulated by Accurate International Biotechnology Co., Ltd. Subsequently, these samples were subjected to mechanical and enzymatic dissociation to disaggregate the tissue into single cells or small clusters, while preserving cellular integrity. Following this initial step, the isolated cells or tissue fragments were embedded within a 3D ECM scaffold, such as Matrigel or collagen. The ECM scaffold served as a supportive substrate, promoting cellular self-organization and mimicking native tissue architecture. Additionally, a precisely formulated cocktail of growth factors, cytokines, and signaling molecules tailored to the specific tissue of interest was meticulously formulated and added to the culture medium to facilitate organoid growth and maintenance.

In data set [2] the test system is SiHa cells. Kind of data set: Lactic acid, ATP and 2-NBDG uptake assays in SiHa cells. Format: cell-based, human. Particulars: 20 μM, 36 h. As to the method: SiHa and U14 cells (2 × 10^5 cells per well) were plated in 6-well plates and cultured in RPMI 1640 medium or DMEM supplemented with 10% FBS and 1% penicillin–streptomycin. After cell adherence, 20 μM NP1192 or DMSO was added and incubated for 36 h, and the assays were performed according to the instruction manuals for the Lactate Assay Kit (Nanjing Jiancheng, China), ATP Assay Kit (Beyotime, China), and 2-NBDG reagent (GlpBio, US). All data analyses were performed via GraphPad Prism 9, and the data are presented as the means ± SEMs.

Data set [3] concerns SiHa cells. Kind of data set: Transwell invasion assay in SiHa cells. Format: cell-based, human. The following applies: pretreated 20 μM 36 h, 12 h. As to the method: The Transwell chamber was assembled by coating the porous membrane insert in the top compartment with Matrigel to form a layer of extracellular matrix (ECM), and the top compartment was placed into a cell culture plate. NAT10^± SiHa cells and SiHa cells treated with DMSO, Remodelin or NP1192 for 36 h were collected and resuspended in serum-free medium at a density of 10,000 cells/200 μL of medium. Then, the cell suspension was added to the top compartment of the Transwell chamber, and the plate was placed in the incubator for 12 h. After incubation, the cells on the bottom surface of the membrane were fixed and stained. The cells were visualized under a microscope, and the number of cells that migrated through the membrane was determined via ImageJ software.

The subject of the next data set is HFF-1 cells. Kind of data set: Cytotoxicity in nonmalignant HFF-1 cells. Format: cell-based, human. The following applies: HFF-1 cells with low NAT10 expression.
Data set [4] has as its system CD8+ T cells cocultured with U14 cells. The following applies: Figure 7B, coculture with U14 cells, 36 h.
Method: Fresh CD8^+ T cells were extracted according to the instructions of the kit. The day before the CD8^+ T cells were extracted, the antimouse CD3 antibody was diluted to 5 μg/mL with sterile PBS, and the diluted antibody was added to a 24-well plate and incubated overnight at 4 °C. (Before the antibody was added to the plate, the plate was rinsed with sterile PBS 2–3 times to avoid dry wells). The plate incubated the previous day was removed from the 4 °C refrigerator on the second day, and the coating solution was discarded, followed by washing with sterile PBS 3 times. Amplification culture medium consisting of DMEM + 10% serum + 5 μg/mL antimouse CD28 + IL-2 was prepared. The cell lines used for culture were maintained in the logarithmic growth phase (70–80% confluence). Cell counting was performed, and CCa cells were seeded in a 12-well plate (10^5 cells/well) and cultured until adherence. T cells were mixed with tumor cells at different effector-to-target ratios (1:10) and then incubated with different drugs for 24 h. Flow cytometry experiments were then performed to detect the CD8^+ T-cell subtypes.

A word on the IC50: it is the concentration that inhibits the measured activity by half. Take `N#Cc1ccc(-c2csc(N(CCCCCCC(=O)N3CCN(c4cccc5c4C(=O)N(C4CCC(=O)NC4=O)C5=O)CC3)N=C3CCCC3)n2)cc1` (centres unmarked) [NP1192]: the NAT10 degradation rate at NAT10 (SiHa cells, 1.25 μM, 36 h) came to 28%; at NAT10 (SiHa cells, 2.5 μM, 36 h), 32%; at NAT10 (SiHa cells, 5 μM, 36 h) it was 40%; at NAT10 (SiHa cells, 10 μM, 36 h), 43%; at NAT10 (SiHa cells, panel TP1–32 at the same time and concentration, Figure 1E) it was 71%. Also, the “NAT10 degradation rate (maximum)” value on NAT10 (SiHa cells, 20 μM, 36 h) worked out at 69%. In addition, the NAT10 degradation on NAT10 (SiHa cells, after 24 h) is 20%. Further, the “hook effect in NAT10 degradation” value at NAT10 (concentrations as high as 20 μM) is listed as “did not exhibit the classical hook effect”. For the same compound, in data set [1], the IC50 worked out at 9.95 µM. Moreover, the lactate levels entry with SiHa cells [2] is “significantly decreased lactate levels”. In addition, in the data set with SiHa cells [2] (Figure 4K, DMSO 3.21), the “absorbtion rate (glucose analog 2-NBDG)” value amounted to 1.94. Also, the cell invasion entry in the data set on SiHa cells [3] is listed as “substantially hindered CCa cell invasion”. In addition, the “cytotoxicity in nonmalignant cells” value with HFF-1 cells is listed as “minimal cytotoxicity”. Further, the “Teff cells, IFN-γ gate (lower row)” value in data set [4] was determined as 7.75%.
